Reference: patent US20060293307A1, “Oxazolidinone derivatives as antimicrobials” (priority 2002, published 2006)
Values after ≈ are worked out from the molar mass of the structure shown. Where two headings read alike, the source gives them in different places.

Tests used:
[1] = system: H. influenzae 23; assay: MIC against Haemophilus strains; format: cell-based
[2] = system: H. influenzae 1745; assay: MIC against Haemophilus strains; format: cell-based
[3] = system: H. influenzae 451; assay: MIC against Haemophilus strains; format: cell-based
[4] = system: H. influenzae ATCC 49247; assay: MIC against Haemophilus strains; format: cell-based
[5] = system: H. influenzae 49766; assay: MIC against Haemophilus strains; format: cell-based
[6] = system: M. tuberculosis PC; assay: MIC against M. tuberculosis strains, agar dilution; format: cell-based, Mycobacterium tuberculosis; conditions: Mycobacterium tuberculosis, S. No. 22 Mt-, Middle Brook 7H10 + OADC, 37° C., 14-21 days, read-out: MIC
[7] = system: M. tuberculosis PC 4782; assay: MIC against M. tuberculosis strains, agar dilution; format: cell-based, Mycobacterium tuberculosis; conditions: Mycobacterium tuberculosis, PC4782, S. No. 21 Mt-, Middle Brook 7H10 + OADC, 37° C., 14-21 days, read-out: MIC
[8] = system: M. tuberculosis 50; assay: MIC against M. tuberculosis strains, agar dilution; format: cell-based, Mycobacterium tuberculosis; conditions: Mycobacterium tuberculosis, S. No. 12 Mt-, Middle Brook 7H10 + OADC, 37° C., 14-21 days, read-out: MIC
[9] = system: M. tuberculosis SGPGI; assay: MIC against M. tuberculosis strains, agar dilution; format: cell-based, Mycobacterium tuberculosis; conditions: Mycobacterium tuberculosis, S. No. 05 Mt-, Middle Brook 7H10 + OADC, 37° C., 14-21 days, read-out: MIC
[10] = system: M. avium intracellulare 559/97; assay: MIC against MAC strains, agar dilution; format: cell-based; conditions: Mycobacterium avium; S. No. 15 Mai-7, M. avium intracellulare 559/97; Middle Brook 7H10 + OADC, 37° C., 14-21 days; read-out: MIC
[11] = system: M. intracellulare B-78/3; assay: MIC against MAC strains, agar dilution; format: cell-based; conditions: Mycobacterium intracellulare, B78/3; S. No. 09 Mi-4, M. intracellulare B-78/3; Middle Brook 7H10 + OADC, 37° C., 14-21 days; read-out: MIC
[12] = system: M. avium ATCC 1723; assay: MIC against MAC strains, agar dilution; format: cell-based, Mycobacterium avium; conditions: Mycobacterium avium, ATCC1723; S. No. 03 Ma-3, M. avium ATCC 1723; Middle Brook 7H10 + OADC, 37° C., 14-21 days; read-out: MIC
[13] = system: M. avium intracellulare 356/97; assay: MIC against MAC strains, agar dilution; format: cell-based; conditions: Mycobacterium avium; S. No. 10 Mai-1, M. avium intracellulare 356/97; Middle Brook 7H10 + OADC, 37° C., 14-21 days; read-out: MIC
[14] = system: M. avium intracellulare 540/96; assay: MIC against MAC strains, agar dilution; format: cell-based; conditions: Mycobacterium avium; S. No. 12 Mai-4, M. avium intracellulare 540/96; Middle Brook 7H10 + OADC, 37° C., 14-21 days; read-out: MIC
[15] = system: M. intracellulare F21/12; assay: MIC against MAC strains, agar dilution; format: cell-based; conditions: Mycobacterium intracellulare; S. No. 08 Mi-3, M. intracellulare F21/12; Middle Brook 7H10 + OADC, 37° C., 14-21 days; read-out: MIC
[16] = system: M. tuberculosis 35801; assay: MIC against M. tuberculosis strains, agar dilution; format: cell-based, Mycobacterium tuberculosis; conditions: Mycobacterium tuberculosis, S. No. 02 Mt-, Middle Brook 7H10 + OADC, 37° C., 14-21 days, read-out: MIC
[17] = system: M avium ATCC 25291; assay: MIC against MAC strains, agar dilution; format: cell-based, Mycobacterium avium; conditions: Mycobacterium avium, ATCC25291; S. No. 02 Ma-2, M avium ATCC 25291; Middle Brook 7H10 + OADC, 37° C., 14-21 days; read-out: MIC
[18] = system: M. intracellulare ATCC 13950; assay: MIC against MAC strains, agar dilution; format: cell-based; conditions: Mycobacterium intracellulare, ATCC13950; S. No. 06 Mi-1, M. intracellulare ATCC 13950; Middle Brook 7H10 + OADC, 37° C., 14-21 days; read-out: MIC
[19] = system: M. tuberculosis PC; assay: MIC against M. tuberculosis strains, agar dilution; format: cell-based, Mycobacterium tuberculosis; conditions: Mycobacterium tuberculosis, S. No. 16 Mt-, Middle Brook 7H10 + OADC, 37° C., 14-21 days, read-out: MIC
[20] = system: M. tuberculosis SGPGI; assay: MIC against M. tuberculosis strains, agar dilution; format: cell-based, Mycobacterium tuberculosis; conditions: Mycobacterium tuberculosis, S. No. 06 Mt-, Middle Brook 7H10 + OADC, 37° C., 14-21 days, read-out: MIC
[21] = system: M. tuberculosis M-164; assay: MIC against M. tuberculosis strains, agar dilution; format: cell-based, Mycobacterium tuberculosis; conditions: Mycobacterium tuberculosis, M164, S. No. 10 Mt-, Middle Brook 7H10 + OADC, 37° C., 14-21 days, read-out: MIC
[22] = system: M. avium intracellulare 18/98; assay: MIC against MAC strains, agar dilution; format: cell-based; conditions: Mycobacterium avium; S. No. 16 Mai-9, M. avium intracellulare 18/98; Middle Brook 7H10 + OADC, 37° C., 14-21 days; read-out: MIC
[23] = system: M. avium intracellulare 926/98; assay: MIC against MAC strains, agar dilution; format: cell-based; conditions: Mycobacterium avium; S. No. 14 Mai-6, M. avium intracellulare 926/98; Middle Brook 7H10 + OADC, 37° C., 14-21 days; read-out: MIC
[24] = system: M. tuberculosis H37Rv; assay: MIC against M. tuberculosis strains, agar dilution; format: cell-based, Mycobacterium tuberculosis; conditions: Mycobacterium tuberculosis, S. No. 04 Mt-, Middle Brook 7H10 + OADC, 37° C., 14-21 days, read-out: MIC
[25] = s. No. 2, H. influenzae ATCC 49247
[26] = Haemophilus influenzae, s. No. 5, H. influenzae 23, read-out: MIC
[27] = Haemophilus influenzae, s. No. 9, H. influenzae 1745, read-out: MIC
[28] = Haemophilus influenzae, s. No. 8, H. influenzae 451, read-out: MIC
[29] = Haemophilus influenzae, ATCC49247, s. No. 2, H. influenzae ATCC 49247, read-out: MIC
[30] = Haemophilus influenzae, s. No. 6, H. influenzae 49766, read-out: MIC

Molecule	MIC ([1]; s. No. 5, H. influenzae 23)	MIC ([2]; s. No. 9, H. influenzae 1745)	MIC ([3]; s. No. 8, H. influenzae 451)	MIC [4, 25]	MIC ([5]; s. No. 6, H. influenzae 49766)	MIC [1, 26]	MIC [2, 27]	MIC [3, 28]	MIC [4, 29]	MIC [5, 30]	other results
CC(=O)NC[C@H]1CN(c2ccc(N3CCN(c4cc(C(OC(C)=O)OC(C)=O)sc4[N+](=O)[O-])CC3)c(F)c2)C(=O)O1 [Compound No. 5, (S)—N-[[3-[3-Fluoro-4-[4-{3-thienyl(2-nitro)-5-acetyloxy}methylacetate]-1-piperazinyl]phenyl]-2-oxo-5-oxazolidinyl]acetamide]	>16 µg/mL	16 µg/mL (≈ 27 µM)	>16 µg/mL	>16 µg/mL	>16 µg/mL						
O=C(NC[C@H]1CN(c2ccc(N3CCN(c4ccc([N+](=O)[O-])s4)CC3)c(F)c2)C(=O)O1)C(Cl)Cl [compound 9, (S)—N-[[3-[-3-Fluoro-4-[N-1-(5-nitro-2-thienyl)-piperazinyl]phenyl] -2-oxo-5-oxazolidinyl]methyl]dichloroacetamide]	>16 µg/mL	>16 µg/mL	>16 µg/mL	>16 µg/mL	>16 µg/mL						
CC(=O)NC[C@H]1CN(c2ccc(N3CCN(c4ccc([N+](=O)[O-])s4)CC3)c(F)c2)C(=O)O1 [Compound No. 1, (S)—N-[[3-[3-Fluoro-4-[4-(5-nitro-2-thienyl)-1-piperazinyl]phenyl]-2-oxo-5-oxazolidinyl]methyl]acetamide]						> 16 µg/mL	16 µg/mL (≈ 34.5 µM)	16 µg/mL (≈ 34.5 µM)	8 µg/mL (≈ 17.3 µM)	8 µg/mL (≈ 17.3 µM)	MIC [6]: 0.5 µg/mL; MIC [7]: 0.125 µg/mL; MIC [8]: 2 µg/mL; MIC [9]: 0.25 µg/mL; MIC [10]: 0.25 µg/mL; MIC [11]: 0.25 µg/mL; MIC [12]: 0.25 µg/mL; MIC [13]: 0.25 µg/mL; MIC [14]: 1 µg/mL; MIC [15]: 0.25 µg/mL; MIC [16]: ≤ 0.125 µg/mL; MIC [17]: 0.25 µg/mL; MIC [18]: 16 µg/mL; MIC [19]: 0.25 µg/mL; MIC [20]: 1 µg/mL; MIC [21]: 0.5 µg/mL; MIC [22]: 0.25 µg/mL; MIC [23]: < 0.12 µg/mL
(S)—N-[[3-[-3-Fluoro-4-[(5-nitro-2-thienyl)-3-methyl-1-piperazinyl]phenyl]-2-oxo-5-oxazolidinyl]methyl]acetamide [Compound No. 10]	>16 µg/mL	>16 µg/mL	>16 µg/mL	>16 µg/mL	>16 µg/mL						
CC(=O)NC[C@H]1CN(c2ccc(N3CCN(c4ccc([N+](=O)[O-])s4)CC3)cc2)C(=O)O1 [Compound No. 6, (S)—N-[[3-[4-[N-1-(5-nitro-2-thienyl)piperazinyl]-phenyl]-2-oxo-5-oxazolidinyl]-methyl]-acetamide]	16 µg/mL (≈ 35.9 µM)	16 µg/mL (≈ 35.9 µM)	16 µg/mL (≈ 35.9 µM)	16 µg/mL (≈ 35.9 µM)	16 µg/mL (≈ 35.9 µM)						
O=C(NC[C@H]1CN(c2ccc(N3CCN(c4ccc([N+](=O)[O-])s4)CC3)c(F)c2)C(=O)O1)C(F)F [Compound No. 8, (S)—N-[[3-[3-Fluoro-4-[4-(5-nitro-2-thienyl)-1-piperazinyl]phenyl]-2-oxo-5-oxazolidinyl]methyl]difluoroacetamide]											MIC ([1]; Haemophilus influenzae, 23): > 16 µg/mL; MIC ([2]; Haemophilus influenzae, 1745): 16 µg/mL (≈ 32 µM); MIC ([3]; Haemophilus influenzae, 451): > 16 µg/mL; MIC ([4]; Haemophilus influenzae, ATCC49247): > 16 µg/mL; MIC ([5]; Haemophilus influenzae, 49766): > 16 µg/mL
C[C@H](Cl)C(=O)NCC1CN(c2ccc(N3CCN(c4ccc([N+](=O)[O-])s4)CC3)c(F)c2)C(=O)O1 (stereo partly drawn) [Compound No. 7, (S)—N-[[3-[3-Fluoro-4-[N-1-{4-(5-nitro-2-thienyl)piperazinyl}]-phenyl]-2-oxo-5-oxazolidinyl]-methyl]-2-chloro-propionamide]	>16 µg/mL	>16 µg/mL	>16 µg/mL	>16 µg/mL	>16 µg/mL						
CC(=O)NC[C@H]1CN(c2ccc(N3CCN(c4ccc(C=O)o4)CC3)c(F)c2)C(=O)O1 [Compound No. 3, (S)—N-[[3-[3-Fluoro-4-[4-(5-formyl-2-furyl)-1-piperazinyl]phenyl]-2-oxo-5-oxazolidinyl]methyl]acetamide]						8 µg/mL (≈ 18.6 µM)	8 µg/mL (≈ 18.6 µM)	8 µg/mL (≈ 18.6 µM)	4 µg/mL (≈ 9.29 µM)	8 µg/mL (≈ 18.6 µM)	
CC(=O)NC[C@H]1CN(c2ccc(N3CCN(c4ccc(C=O)s4)CC3)c(F)c2)C(=O)O1 [Compound No. 2, (S)—N-[[3-[3-Fluoro-4-[4-(5-formyl-2-thienyl)-1-piperazinyl]phenyl]-2-oxo-5-oxazolidinyl]methyl]acetamide]						> 16 µg/mL	> 16 µg/mL	16 µg/mL (≈ 35.8 µM)	16 µg/mL (≈ 35.8 µM)	> 16 µg/mL	
CC(=O)NC[C@H]1CN(c2ccc(N3CCOCC3)c(F)c2)C(=O)O1 [Linezolid, reference compound]						16 µg/mL (≈ 47.4 µM)	16 µg/mL (≈ 47.4 µM)	16 µg/mL (≈ 47.4 µM)	8 µg/mL (≈ 23.7 µM)	16 µg/mL (≈ 47.4 µM)	MIC [6]: 32 µg/mL; MIC [7]: 1 µg/mL; MIC [8]: > 32 µg/mL; MIC [9]: 4 µg/mL; MIC [24]: 1 µg/mL; MIC [16]: 1 µg/mL; MIC [19]: 32 µg/mL; MIC [20]: > 32 µg/mL; MIC [21]: 32 µg/mL
